# Source: the supplement of paper PMC11451515
# Test system: P12-Ichikawa
# Experiment: cell viability relative to DMSO control; higher = less cytotoxic
# Details: 48 h
# In short: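 Three leukemia lines were tested: NOMO1 and SEM at 500 cells/well and P12-Ichikawa at 1000 cells/well. Each was adapted for at least four passages in each medium and seeded in 5 μl in 1536-well plates, and library compounds in DMSO were pin-dosed from 47 μM to 0.79 nM in 11 threefold steps. After 48 h at 37°C, CellTiter-Glo One luminescence was read. Viability is a percentage relative to DMSO wells on each plate, with cell-free wells as background.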
# [1] = HPLM + 10% dialyzed FBS, 0.000781 µM
# [2] = HPLM + 10% dialyzed FBS, 0.00234 µM
# [3] = HPLM + 10% dialyzed FBS, 0.00702 µM
# [4] = HPLM + 10% dialyzed FBS, 0.0211 µM
# [5] = HPLM + 10% dialyzed FBS, 0.0632 µM
# [6] = HPLM + 10% dialyzed FBS, 0.19 µM
# [7] = HPLM + 10% dialyzed FBS, 0.569 µM
# [8] = HPLM + 10% dialyzed FBS, 1.71 µM
# [9] = HPLM + 10% dialyzed FBS, 5.12 µM
# [10] = HPLM + 10% dialyzed FBS, 15.4 µM
# [11] = HPLM + 10% dialyzed FBS, 46.1 µM
# [12] = RPMI 5 mM glucose + 10% FBS, 0.000781 µM
# [13] = RPMI 5 mM glucose + 10% FBS, 0.00234 µM
# [14] = RPMI 5 mM glucose + 10% FBS, 0.00702 µM
# [15] = RPMI 5 mM glucose + 10% FBS, 0.0211 µM
# [16] = RPMI 5 mM glucose + 10% FBS, 0.0632 µM
# [17] = RPMI 5 mM glucose + 10% FBS, 0.19 µM
# [18] = RPMI 5 mM glucose + 10% FBS, 0.569 µM
# [19] = RPMI 5 mM glucose + 10% FBS, 1.71 µM
# [20] = RPMI 5 mM glucose + 10% FBS, 5.12 µM
# [21] = RPMI 5 mM glucose + 10% FBS, 15.4 µM
# [22] = RPMI 5 mM glucose + 10% FBS, 46.1 µM
# [23] = RPMI 5 mM glucose + 10% dialyzed FBS, 0.000781 µM
# [24] = RPMI 5 mM glucose + 10% dialyzed FBS, 0.00234 µM
# [25] = RPMI 5 mM glucose + 10% dialyzed FBS, 0.00702 µM
# [26] = RPMI 5 mM glucose + 10% dialyzed FBS, 0.0211 µM
# [27] = RPMI 5 mM glucose + 10% dialyzed FBS, 0.0632 µM
# [28] = RPMI 5 mM glucose + 10% dialyzed FBS, 0.19 µM
# [29] = RPMI 5 mM glucose + 10% dialyzed FBS, 0.569 µM
# [30] = RPMI 5 mM glucose + 10% dialyzed FBS, 1.71 µM
# [31] = RPMI 5 mM glucose + 10% dialyzed FBS, 5.12 µM
# [32] = RPMI 5 mM glucose + 10% dialyzed FBS, 15.4 µM
# [33] = RPMI 5 mM glucose + 10% dialyzed FBS, 46.1 µM
Structure (SMILES),cell viability [1] [%],cell viability [2] [%],cell viability [3] [%],cell viability [4] [%],cell viability [5] [%],cell viability [6] [%],cell viability [7] [%],cell viability [8] [%],cell viability [9] [%],cell viability [10] [%],cell viability [11] [%],cell viability [12] [%],cell viability [13] [%],cell viability [14] [%],cell viability [15] [%],cell viability [16] [%],cell viability [17] [%],cell viability [18] [%],cell viability [19] [%],cell viability [20] [%],cell viability [21] [%],cell viability [22] [%],cell viability [23] [%],cell viability [24] [%],cell viability [25] [%],cell viability [26] [%],cell viability [27] [%],cell viability [28] [%],cell viability [29] [%],cell viability [30] [%],cell viability [31] [%],cell viability [32] [%],cell viability [33] [%]
CO[C@@H]1[C@@H](O)[C@H](O)[C@@H](n2c3c(Cl)cccc3c3c4c(c5c6cccc(Cl)c6[nH]c5c32)C(=O)NC4=O)O[C@H]1CO,109,100,108,106,100,81.9,14.3,5.78,7.57,4.61,3.32,101,104,103,103,94.9,71,8.36,6.11,4.86,3.72,3.9,97.7,91.4,96.1,94.7,85.7,68.4,14,7.72,8.77,6.63,4.8
Nc1nc(NCCNc2ncc(-n3ccnc3)c(-c3ccc(Cl)cc3Cl)n2)ccc1[N+](=O)[O-],114,119,125,123,126,132,133,131,134,130,125,–,–,–,–,–,–,–,–,–,–,–,–,–,–,–,–,–,–,–,–,–,–
Cc1c(C(=O)c2cccc3ccccc23)c2cccc3c2n1[C@H](CN1CCOCC1)CO3,98.5,93.4,93.5,97,89.5,90.2,91.4,91.9,80.8,82,26.2,83.1,76.7,81.9,78.4,87.8,77.5,80.1,84.5,76.3,74.7,12.9,86,92.5,85.4,82.6,94.2,86.9,90.2,84.6,81,78.6,28.5
CC[C@H]1CN2CCc3cc(OC)c(OC)cc3[C@@H]2C[C@@H]1C[C@H]1NCCc2cc(OC)c(OC)cc21,111,116,108,103,92.5,77.1,39.7,25.7,28.8,21.1,16.1,96.8,107,104,102,93.3,69.4,28.9,16.6,14.8,13.4,11.1,103,113,109,108,103,80.3,56.5,29.6,19.4,14.1,13.6
OCCN(CCO)c1nc(N2CCCCC2)c2nc(N(CCO)CCO)nc(N3CCCCC3)c2n1,113,110,118,114,114,113,109,107,107,98,75,108,108,113,111,119,113,110,106,109,109,68.2,113,105,111,106,117,106,105,101,103,101,58.4
CC(C)Cn1cnc2c(N)nc3ccccc3c21,124,113,107,116,115,112,113,106,87.6,75.1,89.9,113,123,116,119,111,115,110,107,106,106,85.1,111,111,109,115,115,112,105,107,104,102,81
C[N+]1(C)[C@@H]2CC(OC(=O)C(O)(c3cccs3)c3cccs3)C[C@H]1[C@@H]1O[C@@H]12 (some centres undefined),98.7,105,109,106,109,110,109,109,103,112,102,117,113,123,111,120,126,120,116,115,111,121,105,101,100,107,105,111,109,109,111,113,101
CN1CCC(CC1)=C2C3=C(C=CC=C3)\C=C/C4=C2C=CC=C4,106,125,117,130,122,122,126,133,128,118,108,–,–,–,–,–,–,–,–,–,–,–,–,–,–,–,–,–,–,–,–,–,–
Oc1ccc(-c2ccc(-c3cc(Nc4cccc(CNC5CC5)c4)[nH]n3)cc2)c(O)c1,104,103,112,104,96.1,112,104,92.3,32.2,38,64.1,99.4,98.1,115,114,98.5,116,108,89,23.2,13.5,23.4,101,114,105,125,111,112,104,101,58.8,32.9,43.2
CCOCC(O)COc1ccc(NC(=O)CC[S+](C)C)cc1 (centres undefined),87.3,82.5,87.9,96,91.9,88.1,98.5,98,93.7,99,95,88.2,90.5,93,97.9,91.3,95.9,95.9,97.3,94.4,104,92.3,85.3,74.7,88.7,88.8,82.7,91.3,89.5,84.6,85.6,88,78.8
CCOC(=O)[C@H]1O[C@@H]1C(=O)N[C@@H](CC(C)C)C(=O)NCCC(C)C,123,114,121,127,123,123,117,116,117,108,106,128,121,119,118,124,115,127,116,115,106,92.9,116,119,115,121,124,119,122,119,118,109,102
CC(C)(O)C(=O)Nc1ccc([N+](=O)[O-])c(C(F)(F)F)c1,103,109,124,119,118,123,119,119,85.6,24,11.6,95.7,108,115,115,122,113,119,125,87,29.5,13.8,94.1,127,116,121,125,130,139,136,127,74.8,18.1
CCOC(=O)N[C@@H]1CC[C@@H]2[C@@H](C1)C[C@H]1C(=O)O[C@H](C)[C@H]1[C@H]2/C=C/c1ccc(-c2cccc(F)c2)cn1,113,114,115,114,114,117,113,120,120,115,98.5,–,–,–,–,–,–,–,–,–,–,–,114,116,124,122,123,120,123,122,120,119,68.4
CCc1cc(-c2n[nH]c(C)c2-c2ccc3c(c2)OCCO3)c(O)cc1O,115,133,119,132,132,135,131,135,131,96.7,74.7,–,–,–,–,–,–,–,–,–,–,–,–,–,–,–,–,–,–,–,–,–,–
CCOC(=O)[C@@H](N)CCC(=O)N[C@@H](CSCc1ccccc1)C(=O)N[C@@H](C(=O)OCC)c1ccccc1,109,124,128,126,131,131,129,132,139,140,123,–,–,–,–,–,–,–,–,–,–,–,–,–,–,–,–,–,–,–,–,–,–
O=[S+]([O-])(NCCNC/C=C/c1ccc(Br)cc1)c1cccc2cnccc12,108,110,102,105,107,107,106,100,97,95.3,95.8,99.1,108,96.4,89,97.6,108,102,99.2,96.6,81.5,72,95.9,95.6,103,96.2,99.6,101,102,103,95.8,77,77.8
C1CN\2C[C@@H](\N=C2S1)C3=CC=CC=C3,94.4,105,99.8,104,108,106,107,108,103,108,111,96.3,105,96,93.4,98.7,–,102,106,99.8,103,105,87,93.9,90.1,94.4,101,102,92.7,98.3,101,96.8,90.8
O=C(NCC1CCOCC1)c1cnc(Nc2ccc(Cl)cc2Cl)nc1C(F)(F)F,102,111,115,118,109,117,118,115,115,121,124,100,127,123,121,130,131,112,131,123,132,118,98,115,114,127,123,132,120,122,122,127,123
